Data on 4 compounds can be found in publication PMC6152416, “Pharmacological and Toxicological Screening of Novel Benzimidazole-Morpholine Derivatives as Dual-Acting Inhibitors” (Molecules : A Journal of Synthetic Chemistry and Natural …, 2017).

Broadly, the IC50 is the midpoint of a concentration-inhibition curve. A higher IC50 goes with weaker potency. Usually inhibition stands for the percentage by which the read-out fell short of the control.

Where two headings read alike, the source gives them in different places.

What all share (assay type): biochemical
One assay has as its target AChE (Homo sapiens, UniProt P22303). The method, then: Inhibition potency of the test compounds against AChE was determined using Ellman’s method. Enzyme solutions were prepared in gelatin solution (1%, w/v), at the concentration of 2.5 units/mL. […] AChE solution (20 µL/well) and test solution (20 µL/well) were added to phosphate buffer solution (140 µL/well, pH 8.0 ± 0.1), and incubated at 25 °C for 5 min. […] The production of the yellow anion was recorded by multimode microplate reader for 10 min at 412 nm. As a control, an identical solution of the enzyme without the inhibitor was processed. The control and the inhibitor readings were corrected with blank-readings. All processes were assayed in four independent determinations.

For another assay, the target named is T1, COX-2 (Homo sapiens, UniProt P35354).
T1 construct: purchased BioVision (Milpitas, CA, USA) K547-100
T1 sequence (P35354 18-604): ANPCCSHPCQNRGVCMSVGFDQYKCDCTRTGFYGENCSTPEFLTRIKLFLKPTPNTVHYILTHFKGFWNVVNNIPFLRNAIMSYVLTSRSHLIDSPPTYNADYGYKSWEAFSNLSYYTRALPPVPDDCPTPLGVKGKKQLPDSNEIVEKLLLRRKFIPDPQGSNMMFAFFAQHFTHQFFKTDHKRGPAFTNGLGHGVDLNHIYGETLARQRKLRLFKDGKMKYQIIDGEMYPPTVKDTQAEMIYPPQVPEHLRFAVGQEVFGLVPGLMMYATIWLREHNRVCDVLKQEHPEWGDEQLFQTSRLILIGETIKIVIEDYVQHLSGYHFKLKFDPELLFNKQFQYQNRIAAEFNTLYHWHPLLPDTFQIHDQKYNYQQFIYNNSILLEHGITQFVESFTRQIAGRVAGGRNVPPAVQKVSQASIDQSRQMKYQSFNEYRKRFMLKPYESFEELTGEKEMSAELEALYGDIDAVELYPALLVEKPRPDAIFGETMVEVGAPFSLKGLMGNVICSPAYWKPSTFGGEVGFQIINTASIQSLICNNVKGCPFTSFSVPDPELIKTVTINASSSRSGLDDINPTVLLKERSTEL
Put plainly: Fluorimetric COX-2 inhibition screening kit (BioVision). To be noted: for COX-2 inhibition at the initial concentrations: 10^−3 M and 10^−4 M; for inhibition at 10 µM: 10^−5 M; for inhibition at 1 µM: 10^−6 M, read-out: COX 2 Inhibition %; for inhibition at 0.1 µM: 10^−7 M; for inhibition at 0.01 µM: 10^−8 M; for inhibition at 0.001 µM: 10^−9 M. The method, then: (§1) Inhibitory potency of the compounds on COX-1 and COX-2 enzymes was determined by using fluorimetric COX-1 and COX-2 inhibition screening kits from BioVision (Milpitas, CA, USA). The experimental protocol as described in the guides provided by the supplier was followed. All of the pipetting were performed using a robotized system to increase speed, accuracy and precision. Fluorescence intensities of the samples were kinetically measured at 25 °C for 5–10 min by monitoring emissions at 587 nm after excitation at 535 nm. Two appropriate points (T1 and T2) in the linear range of the plot were chosen and the corresponding fluorescence values (RFU1 and RFU2) were obtained. The slope for all samples including Enzyme Control (EC) was calculated by dividing the net ΔRFU (RFU2 − RFU1) values by the time ΔT (T2 − T1). Percentage of relative inhibition was calculated by using the following equation:% Relative inhibition = (Slope of EC − Slope of S/Slope of EC) × 100 where S is the term representing the tested compound [51, 52]. […] The IC50 values were calculated using the plots of the enzyme activity against concentrations by applying regression analyses.

The target in another assay is T2, COX-1 (Ovis aries, UniProt P05979).
T2 construct: purchased BioVision (Milpitas, CA, USA) K548-100
Briefly: Fluorimetric COX-1 inhibition screening kit (BioVision). To be noted: for COX-1 inhibition at the initial concentrations: 10^−3 M and 10^−4 M; for inhibition at 10 µM: 10^−5 M; for inhibition at 1 µM: 10^−6 M; for inhibition at 0.1 µM: 10^−7 M; for inhibition at 0.01 µM: 10^−8 M; for inhibition at 0.001 µM: 10^−9 M. On the procedure: as §1

The next assay addresses T3, human recombinant MAO-A (Homo sapiens, UniProt P21397).
T3 sequence (P21397 1-527): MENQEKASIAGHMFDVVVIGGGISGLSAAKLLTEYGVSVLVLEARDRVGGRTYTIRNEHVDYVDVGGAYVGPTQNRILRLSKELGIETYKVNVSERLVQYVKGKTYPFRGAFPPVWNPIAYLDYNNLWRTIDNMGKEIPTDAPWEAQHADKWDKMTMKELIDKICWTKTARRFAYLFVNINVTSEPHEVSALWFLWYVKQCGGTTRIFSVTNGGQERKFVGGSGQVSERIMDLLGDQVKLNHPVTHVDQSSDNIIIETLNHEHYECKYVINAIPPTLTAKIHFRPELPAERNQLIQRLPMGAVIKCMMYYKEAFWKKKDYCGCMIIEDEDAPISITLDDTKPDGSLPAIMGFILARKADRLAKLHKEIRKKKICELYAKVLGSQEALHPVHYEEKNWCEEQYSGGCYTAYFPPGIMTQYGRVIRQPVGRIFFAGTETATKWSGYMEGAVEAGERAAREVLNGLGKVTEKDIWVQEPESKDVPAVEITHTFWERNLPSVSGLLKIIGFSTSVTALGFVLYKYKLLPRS
Put plainly: MAO inhibition assay (kynuramine, fluorimetric). The method, then: (§2) Enzyme activity assays were performed according to the procedure reported by Matsumoto et al. with slight modifications. In order to prevent the destructive effect of light on MAO enzymes, the assays were performed in 96-well black plates. Phosphate buffer solution (0.1 M, pH = 7.4) was used for preparation of stock solutions (5 mg/mL) of both human recombinant MAO-A and MAO-B enzymes. […] The addition of the test compound solution was followed by addition of either MAO-A or MAO-B enzyme (50 μL/well) solutions. After 10 min of incubation at 37 °C, kynuramine (50 μL/well) was added and enzyme-substrate reaction was initiated. The plate was incubated for 20 min at 37 °C and then reaction was terminated by addition of 2 N NaOH (75 μL/well). The fluorimetric reads from the top was performed at 310 nm excitation and 380 nm emission wavelengths.

The target of the next assay is T4, human recombinant MAO-B (Homo sapiens, UniProt P27338).
T4 sequence (P27338 1-520): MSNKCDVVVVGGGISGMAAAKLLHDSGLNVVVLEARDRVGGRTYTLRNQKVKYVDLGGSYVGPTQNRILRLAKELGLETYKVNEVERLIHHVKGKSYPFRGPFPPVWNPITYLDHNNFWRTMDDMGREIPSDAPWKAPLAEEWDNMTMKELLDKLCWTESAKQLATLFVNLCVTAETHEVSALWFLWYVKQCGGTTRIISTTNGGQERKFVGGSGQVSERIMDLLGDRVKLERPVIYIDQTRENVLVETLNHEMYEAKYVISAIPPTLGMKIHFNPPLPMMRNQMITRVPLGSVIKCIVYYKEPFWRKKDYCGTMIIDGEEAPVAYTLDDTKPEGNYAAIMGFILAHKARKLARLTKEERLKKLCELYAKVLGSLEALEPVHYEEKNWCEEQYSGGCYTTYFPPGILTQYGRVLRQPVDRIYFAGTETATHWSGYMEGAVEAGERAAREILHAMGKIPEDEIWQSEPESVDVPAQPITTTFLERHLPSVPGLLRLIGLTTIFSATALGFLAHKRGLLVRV
Briefly: MAO inhibition assay (kynuramine, fluorimetric). On the procedure:
as §2

AChE, sequence (P22303 32-614): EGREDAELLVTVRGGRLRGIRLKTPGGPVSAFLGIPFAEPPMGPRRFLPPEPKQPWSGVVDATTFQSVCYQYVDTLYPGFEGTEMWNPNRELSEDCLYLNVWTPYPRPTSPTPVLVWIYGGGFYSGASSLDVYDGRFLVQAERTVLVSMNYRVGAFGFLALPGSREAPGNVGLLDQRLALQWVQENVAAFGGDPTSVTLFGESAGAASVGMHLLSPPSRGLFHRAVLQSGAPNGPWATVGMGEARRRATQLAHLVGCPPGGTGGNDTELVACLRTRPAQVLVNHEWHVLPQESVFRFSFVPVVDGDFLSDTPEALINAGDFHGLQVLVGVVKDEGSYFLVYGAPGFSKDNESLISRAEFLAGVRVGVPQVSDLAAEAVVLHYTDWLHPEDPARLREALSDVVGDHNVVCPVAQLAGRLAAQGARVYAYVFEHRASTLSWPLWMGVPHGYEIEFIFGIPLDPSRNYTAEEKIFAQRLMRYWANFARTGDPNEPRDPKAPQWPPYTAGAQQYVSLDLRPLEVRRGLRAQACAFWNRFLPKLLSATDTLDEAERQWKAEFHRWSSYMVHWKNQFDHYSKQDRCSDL
T2 sequence (P05979 25-600): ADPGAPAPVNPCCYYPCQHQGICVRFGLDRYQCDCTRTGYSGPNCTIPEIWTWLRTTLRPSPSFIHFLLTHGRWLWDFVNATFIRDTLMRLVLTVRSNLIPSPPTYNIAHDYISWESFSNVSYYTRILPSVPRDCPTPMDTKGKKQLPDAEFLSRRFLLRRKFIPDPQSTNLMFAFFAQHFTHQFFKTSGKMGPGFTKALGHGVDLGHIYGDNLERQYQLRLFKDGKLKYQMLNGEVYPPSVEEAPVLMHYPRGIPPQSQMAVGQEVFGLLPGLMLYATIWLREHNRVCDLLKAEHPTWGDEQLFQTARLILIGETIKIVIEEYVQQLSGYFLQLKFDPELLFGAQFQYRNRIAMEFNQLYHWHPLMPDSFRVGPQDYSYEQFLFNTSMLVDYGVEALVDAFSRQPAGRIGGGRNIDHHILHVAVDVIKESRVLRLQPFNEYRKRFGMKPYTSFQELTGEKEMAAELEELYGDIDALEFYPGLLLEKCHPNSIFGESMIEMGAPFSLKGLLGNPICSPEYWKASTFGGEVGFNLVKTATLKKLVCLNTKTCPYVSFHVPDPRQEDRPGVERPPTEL

Regarding `Cc1ccc(-c2nc3ccccc3n2CCN2CCOCC2)cc1` [Compound 2a, 2-(4-Methylphenyl)-1-[2-(morpholin-4-yl)ethyl]-1H-benzimidazole], the “AChE Inhibition (%)” value on AChE (10^-3 M) is 21.80%. In addition, at AChE (10^-4 M), the “AChE Inhibition (%)” value is recorded as 21.80%. On COX-2, the IC50 stood at 58.7 µM, the “COX-2 inhibition at the initial concentrations” value is on record as “more than 50%”, the inhibition at 10 µM came to 43.7 ± 1.07% and the inhibition at 1 µM amounted to 40.3 ± 1.1%. On COX-2, this compound yielded an inhibition at 0.1 µM of 38.3 ± 0.92%, an inhibition at 0.01 µM of 36.2 ± 0.87% and an inhibition at 0.001 µM of 32.4 ± 0.91%. Further, the “COX-2 Inhibition (%)” value on COX-2 (10^-3 M) is listed as 58.28%. In addition, on COX-2 (10^-4 M), the “COX-2 Inhibition (%)” value came to 56.23%. In addition, on COX-1, the IC50 stood at 56.1 µM, the “COX-1 inhibition at the initial concentrations” value is “more than 50%”, the inhibition at 10 µM was 47.4 ± 1.08% and the inhibition at 1 µM amounted to 40.1 ± 0.92%. At COX-1, this compound displayed an inhibition at 0.1 µM of 35.7 ± 0.97%, an inhibition at 0.01 µM of 30.5 ± 0.83% and an inhibition at 0.001 µM of 28.8 ± 0.79%. Further, the “COX-1 Inhibition (%)” value at COX-1 (10^-3 M) is on record as 75.08%. Besides, the “COX-1 Inhibition (%)” value on COX-1 (10^-4 M) is reported as 71.23%. Further, the “MAO-A Inhibition (%)” value on human recombinant MAO-A (10^-3 M) amounted to 24.29%. Moreover, the “MAO-A Inhibition (%)” value at human recombinant MAO-A (10^-4 M) amounted to 19.15%. In addition, the “MAO-B Inhibition (%)” value at human recombinant MAO-B (10^-3 M) is listed as 25.27%. Moreover, the “MAO-B Inhibition (%)” value at human recombinant MAO-B (10^-4 M) stood at 16.63%.

Regarding `CCN(CC)c1ccc(-c2nc3ccccc3n2CCN2CCOCC2)cc1` [Compound 2h, 2-(4-Diethylaminophenyl)-1-[2-(morpholin-4-yl)ethyl]-1H-benzimidazole], at AChE (10^-3 M), the “AChE Inhibition (%)” value is 10.49%. Also, the “AChE Inhibition (%)” value on AChE (10^-4 M) came out at 10.49%. For the same compound, on COX-2, inhibition was half-maximal at 51.2 µM (IC50), the “COX-2 inhibition at the initial concentrations” value is “more than 50%”, the inhibition at 10 µM came out at 47.5 ± 1.08% and the inhibition at 1 µM is 42.6 ± 1.16%. On COX-2, this compound registered an inhibition at 0.1 µM of 31.8 ± 0.99%, an inhibition at 0.01 µM of 28.4 ± 0.82% and an inhibition at 0.001 µM of 23 ± 0.68%. Also, at COX-2 (10^-3 M), the “COX-2 Inhibition (%)” value is 56.20%. Also, the “COX-2 Inhibition (%)” value on COX-2 (10^-4 M) turned out to be 57.08%. Also, at COX-1, the IC50 came to 43 µM, the “COX-1 inhibition at the initial concentrations” value was “more than 50%”, the inhibition at 10 µM stood at 46.3 ± 1.09% and the inhibition at 1 µM was determined as 40.9 ± 0.99%. At COX-1, this compound had an inhibition at 0.1 µM of 35.6 ± 0.81%, an inhibition at 0.01 µM of 30.8 ± 0.93% and an inhibition at 0.001 µM of 24.2 ± 0.72%. Also, the “COX-1 Inhibition (%)” value on COX-1 (10^-3 M) stood at 75.21%. Besides, at COX-1 (10^-4 M), the “COX-1 Inhibition (%)” value stood at 78.21%. For the same compound, the “MAO-A Inhibition (%)” value at human recombinant MAO-A (10^-3 M) amounted to 36.71%. The “MAO-A Inhibition (%)” value at human recombinant MAO-A (10^-4 M) was 23.16%. Besides, the “MAO-B Inhibition (%)” value on human recombinant MAO-B (10^-3 M) turned out to be 45.58%. Besides, the “MAO-B Inhibition (%)” value at human recombinant MAO-B (10^-4 M) was found to be 36.16%.

With `Fc1ccc(-c2nc3ccccc3n2CCN2CCOCC2)cc1` [Compound 2d, 2-(4-Fluorophenyl)-1-[2-(morpholin-4-yl)ethyl]-1H-benzimidazole], the “AChE Inhibition (%)” value on AChE (10^-3 M) and on AChE (10^-4 M) was 16.20% throughout. The entries for the “COX-2 Inhibition (%)” value at COX-2 (10^-3 M) and at COX-2 (10^-4 M) were 21.08% and 28.46%, respectively. In addition, the “COX-1 Inhibition (%)” value at COX-1 (10^-3 M) stood at 31.87%; at COX-1 (10^-4 M), 29.36%. Further, the “MAO-A Inhibition (%)” value at human recombinant MAO-A (10^-3 M) is 39.79%; on human recombinant MAO-A (10^-4 M) it was 33.11%. In addition, the “MAO-B Inhibition (%)” value at human recombinant MAO-B (10^-3 M) was 45.29%; on human recombinant MAO-B (10^-4 M) it was 38.96%.

Consider `CN(C)c1ccc(-c2nc3ccccc3n2CCN2CCOCC2)cc1` [Compound 2i, 2-(4-Dimethylaminophenyl)-1-[2-(morpholin-4-yl)ethyl]-1H-benzimidazole], for which the “AChE Inhibition (%)” value on AChE (10^-3 M) and at AChE (10^-4 M) was 7.54% in each case. The “COX-2 Inhibition (%)” value on COX-2 (10^-3 M) is on record as 18.47%; at COX-2 (10^-4 M), 25.76%. Further, the “COX-1 Inhibition (%)” value at COX-1 (10^-3 M) turned out to be 30.08%; on COX-1 (10^-4 M) it was 22.62%. Also, the “MAO-A Inhibition (%)” value is 26.91% on human recombinant MAO-A (10^-3 M) and 19.20% at human recombinant MAO-A (10^-4 M). The “MAO-B Inhibition (%)” value on human recombinant MAO-B (10^-3 M) turned out to be 22.17%; on human recombinant MAO-B (10^-4 M) it was 14.43%.
